# Reference: patent US8337851B2, “Methods of monitoring the efficacy of anti-CD40 antibodies in treating a subject for a CD40-expressing cancer” (Novartis AG, priority 2005, dated 2012)
# Key:
# B-CLL cells = assay: p38 MAPK signaling and survival in B-CLL cells, 24-hour experiment; format: cell-based, human
# Procedure: In the 24-hour experiment, approximately 0.8×10^6 B-CLL cells per well were placed in full serum (10% FBS)-containing media for 24 hours. […] Western blot analysis with antibodies against specific proteins shown was conducted, and equal loading was evaluated by probing with antibodies against β-actin.
# [1] = tested on: B-CLL cells from patients; assay: Western blot of CD40L-mediated signaling (p-IKK α/β, p-ERK, p-Akt, p-p38) in B-CLL cells; format: cell-based, human; details: 10 μg/ml
# Procedure: In these experiments, 1.0×10^6 B-CLL cells from patients were stimulated with 1 μg/ml sCD40L (Alexis Corporation, Bingham, Nottinghamshire, UK). […] Cells were collected at 0 and 20 minutes. Phosphorylated IKKα (Ser180) and IKK β (Ser 181) (p-IKK α/β; NFkB pathway), phosphorylated ERK (p-ERK), phosphorylated Akt (p-Akt), and phosphorylated p38 MAPK (p-p38) were detected in cell lysates by Western blot.
# IM-9 cells = assay: ADCC, Calcein release with human NK cells, IM-9; format: cell-based; details: NK:target 10 to 1, 4 hours, read-out: ED50 (percent specific lysis)
# Procedure: Human MM cell lines, KMS-12-BM, IM-9, and ARH-77, were washed 3 times using R2 medium (Pheno red-free RPMI with 2% FBS) and re-suspended in R10 medium (Pheno red-free RPMI with 10% FBS) at the density of 1×10^6/mL. Cells were labeled by adding Calcein AM (final concentration […]) and incubating for 30 minutes at 37° C. in a humidified atmosphere with 5% CO2. Purified human NK cells and Calcein-labeled target cells were mixed in R10 medium at the ratio of 10 to 1 (5×10^4 NK cells and 5×10^3 target cells in […]) and added in U-bottom 96 well plate (Packard's Instrument, Meriden, Conn.). […] 1% NP-40 was added in 3 wells for the maximum cell lysis. Cells were incubated for 4 hours without disturbance at 37° C. in a humidified atmosphere with 5% CO2. The plate was then centrifuged at 300 rpm without brake for 5 minutes. […] supernatant was transferred into a new 96 well plate. The released Calcein in the supernatant was measured in arbitrary fluorescent unit (AFU) at 485 nm excitation and 535 nm emission using Tecan SpectraFluor Plus (Tecan U.S., Inc., Research Triangle, N.C.). The percent of specific lysis was calculated as: 100×(AFU test−AFU spontaneous release)/(AFU maximal release−AFU spontaneous release).
# The ED50 was determined for each cell line by plotting the log of antibody concentration versus the percent specific lysis (see FIG. 16).
# [2] = tested on: B-CLL cells from patients; assay: Western blot of apoptosis markers in B-CLL cells not stimulated with CD40L; format: cell-based, human; details: 10 μg/ml; 1, 4 and 24 hours; no CD40L
# Procedure: Cells were collected at 1, 4, and 24 hours. Western blot analysis with antibodies to cleaved PARP (apoptotic protein) and XIAP (anti-apoptotic protein) was conducted on cell lysates.
# [3] = tested on: B-CLL cells from patients; assay: Western blot of apoptosis and survival biomarkers in sCD40L-stimulated B-CLL cells; format: cell-based, human
# Procedure: In these experiments, 1.0×10^6 B-CLL cells from patients were stimulated with 1 μg/ml sCD40L (Alexis Corporation, Bingham, Noffinghamshire, UK). […] Cleaved PARP, which is a biomarker of apoptosis, and Bcl-xl, Bcl-2, and cIAP1, which are biomarkers of survival, were detected in cell lysates by Western blot analysis using commercially available antibodies specific for these biomarkers.
# In these experiments, 1.0×10^6B-CLL cells from patients were stimulated with 1 μg/ml sCD40L (Alexis Corp., Bingham, Nottinghamshire, UK). […] Cells were collected at 22-24 hours. Western blot analysis with antibodies to cleaved PARP, caspase-3, and Bcl-xl were conducted on cell lysates. Antibody against β-actin was used for detecting equal loading and transfer efficiency.
# CLL patient samples = assay: p-p38 status in multiple B-CLL patient samples; format: cell-based, human; details: CLL patients with high or low basal p-p38; CD40L stimulation
# Text: Patients with low basal p-p38 activity have a higher induction of phosphorylation by CD40L stimulation than patients with a higher basal expression.
# [4] = patients #4 and #21, 10 μg/ml, 24 hours, 1 μg/ml sCD40L
substance,measurement,setting,value
CHIR-12.12: fully human anti-CD40 monoclonal antibody of the IgG1 isotype from hybridoma cell line 153.8E2.D10.D6.12.12 (ATCC PTA-5543),CD40 expression,B-CLL cells,inhibited
same,cleaved Caspase-3,B-CLL cells; CD40L,induced to a lesser extent
same,p38 phosphorylation,B-CLL cells; CD40L,similarly blocked
same,cleaved-PARP,"B-CLL cells; SB203580 30 and 60 μM, CHIR-12.12 10 μg/mL, CD40L",significantly induced
same,Bcl-xl expression,B-CLL cells; especially 60 μM SB203580 and 10 μg/ml CHIR-12.12,blocked
same,"phosphorylation of IKK α/β, ERK and Akt","[1]; 20 minutes, 1 μg/ml sCD40L, vs control IgG","significant inhibition of phosphorylation of IKK α/β, ERK, and Akt"
same,p38 MAPK activation,[1]; samples with constitutively activated p38 MAPK,did not significantly inhibit p38 MAPK activation
same,EC50,IM-9 cells,5.9 pM
same,"apoptosis without CD40L stimulation (cleaved PARP, XIAP)",[2],did not trigger additional apoptosis of B-CLL cells
same,"cleaved PARP, caspase-3 and Bcl-xl, dose response (Western blot)","[3]; 0-20 μg/ml, 22-24 hours, 1 μg/ml sCD40L",induction of cleaved PARP and caspase-3 as well as reduction of Bcl-xl in a dose-dependent manner
same,"lowest dose with effect on cleaved PARP, caspase-3 and Bcl-xl","[3]; 22-24 hours, 1 μg/ml sCD40L",≥ 0.01 µg/mL
same,XIAP and Bcl-2 (Western blot),"[3]; patient #30, vs control IgG",reduced the expression of XIAP and Bcl-2
same,cleaved PARP (Western blot),"[3]; patient #30, vs control IgG",induced the expression of cleaved PARP
same,cleaved PARP (Western blot),"[3]; patient #31, vs control IgG",induced the expression of cleaved PARP
same,cyclin D1 and Bcl-xl (Western blot),"[3]; patient #31, vs control IgG",reduced the expression of cyclin D1 and Bcl-xl
same,Bcl-2 and TRAIL level (Western blot),[3]; [4],no changes of Bcl-2 and TRAIL level
same,"Bcl-xl, XIAP and cIAP1 (Western blot)",[3]; [4],"reduction of Bcl-xl, XIAP and cIAP1"
same,cleaved PARP (Western blot),"[3]; patients #4 and #21, 10 μg/ml, 24 hours, 1 μg/ml sCD40L, vs control IgG",induction of cleaved PARP
same,p-p38 levels,CLL patient samples,lowered p-p38 levels back to basal phosphorylation
